Results: PubChem BioAssay (NCI)
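Protocol summary: plate cells (96-well), add compound at 5 concentrations, incubate 48 h, interpolate endpoints linearly. At the GI50, growth is halved. TGI marks complete inhibition of growth.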

Columns and labels:
Assay in all cases: inhibition of tumour cell growth, NCI panel, 48 h
K-562 leukemia = test system: K-562 leukemia
T-47D breast = test system: T-47D breast
MDA-N = test system: MDA-N
NCI-H522 lung = test system: NCI-H522 lung
OVCAR-4 ovarian = test system: OVCAR-4 ovarian
HL-60(TB) leukemia = test system: HL-60(TB) leukemia
DU-145 prostate = test system: DU-145 prostate
EKVX NSCLC = test system: EKVX NSCLC
OVCAR-8 ovarian = test system: OVCAR-8 ovarian
HOP-92 NSCLC = test system: HOP-92 NSCLC

Row | SMILES | TGI (K-562 leukemia) | TGI (T-47D breast) | TGI (MDA-N) | TGI (NCI-H522 lung) | TGI (OVCAR-4 ovarian) | TGI (HL-60(TB) leukemia) | TGI (DU-145 prostate) | TGI (EKVX NSCLC) | TGI (OVCAR-8 ovarian) | TGI (HOP-92 NSCLC) | GI50 (K-562 leukemia) | GI50 (T-47D breast) | GI50 (HL-60(TB) leukemia) | GI50 (DU-145 prostate)
1 | C=C1CC[C@@H]2[C@](C)(COC(=O)CCC(=O)OC)CCC[C@@]2(C)[C@@H]1CCC1=CC(=O)OC1 | > 100 µM | 73 µM | > 100 µM | > 100 µM | > 100 µM | 51.2 µM | > 100 µM | > 100 µM | > 100 µM | – | – | – | – | –
2 | Cc1nc2ccccc2n1Cc1nnc(-c2ccccc2)o1 | > 100 µM | > 100 µM | > 100 µM | > 100 µM | – | > 100 µM | > 100 µM | > 100 µM | > 100 µM | > 100 µM | – | – | – | –
3 | CCCCCCCCCCCCCCCCOP(=O)([O-])OCC[N+](C)(C)C1CC(C)(C)N(O)C(C)(C)C1 | – | > 100 µM | – | > 100 µM | > 100 µM | – | > 100 µM | > 100 µM | > 100 µM | > 100 µM | – | – | – | –
4 | S=c1[nH]nc(Cn2c3ccc(Br)cc3c3nc4ccccc4nc32)o1 | > 100 µM | > 100 µM | > 100 µM | 69.6 µM | – | – | > 100 µM | > 100 µM | > 100 µM | 47 µM | – | – | – | –
5 | C/C=C1/C=CC2c3[nH]c4ccccc4c3CCN2C1 (configuration not stated) | > 400 µM | – | – | > 400 µM | – | > 400 µM | – | > 400 µM | > 400 µM | > 400 µM | – | – | – | –
6 | CCOC(=O)c1c(Cl)c2c(n1Cc1ccccc1)-c1oncc1CCC2 | > 100 µM | > 100 µM | – | – | – | > 100 µM | > 100 µM | – | – | – | 3.68 µM | 2.69 µM | 3.32 µM | > 100 µM
7 | Nc1nccc(NCC2(CO)CC(CCc3ccccc3)C2)n1 (configuration not stated) | 45.5 µM | 27.6 µM | 31.4 µM | 26 µM | 47.2 µM | 34.4 µM | 30.6 µM | 46.9 µM | 69.4 µM | – | – | – | – | –
8 | COC(=O)[C@@H]1Cc2ccc(OC)c(c2)OCCC(=O)N1 | > 100 µM | > 100 µM | > 100 µM | > 100 µM | > 100 µM | – | > 100 µM | > 100 µM | > 100 µM | – | – | – | – | –
9 | CCOC(=O)c1c(C)n(-c2ccc(C)cc2)c(=O)c2ccccc2c(=O)c2c(=O)ccc(=O)c1=2 | 32.1 µM | 72.2 µM | – | 42.6 µM | 58.5 µM | 40.8 µM | 39.3 µM | 80 µM | 33.6 µM | 38.2 µM | – | – | – | –
10 | O=S1(=O)C(=C(c2ccccc2)c2ccccc2)S(=O)(=O)c2ccccc21 | > 100 µM | – | – | > 100 µM | > 100 µM | > 100 µM | – | > 100 µM | > 100 µM | 50.8 µM | – | – | – | –
11 | NC(Cc1cc(I)c(Oc2ccc(O)c(I)c2)c(I)c1)C(=O)O (configuration not stated) | – | > 100 µM | > 100 µM | > 100 µM | > 100 µM | – | > 100 µM | > 100 µM | > 100 µM | > 100 µM | – | – | – | –
12 | O=C(O)c1ccccc1/C=C1\Cc2cc3c(cc2C1=O)CCC3 | 51.7 µM | 45.6 µM | 38.9 µM | 45.6 µM | 85.7 µM | 27.1 µM | > 100 µM | > 100 µM | > 100 µM | – | – | – | – | –
